Where two headings read alike, the source gives them in different places.
What was measured:
Sm.TRPMPZQ [1] = target: T1, Sm.TRPMPZQ (Schistosoma mansoni, UniProt A0A5K4F0X5); assay: cell-based; details: for Emax: HEK293
Protocol: HEK cells were transfected with cDNA (400μg/ml DNA) encoding Sm.TRPMPZQ using a Maxcyte STX electroporation system and incubated overnight at 37°C. This system is uniquely capabable of large scale transfections providing one batch of cells ready for large scale HTS [30]. Briefly, the HEK cells were resuspended at 10^8/ml in Maxcyte electroporation buffer. Plasmid DNA was added to the cells in buffer to achieve a concentration of 400 μg/ml from a stock of 5mg/ml (in TE buffer). This mixture was loaded into the appropriate cassette, inserted into the machine, and cells electroporated. Cells were then frozen to provide a single supply of transfected cells for all subsequent assays. On the day of the assays, cells were thawed in a 37°C waterbath, and resuspended in DMEM + 10% FBS and counted. The cells were pelleted by centrifugation at 170xg for 5 minutes. The media was aspirated, and the remaining pellet was resuspended in 1x HBSS with 20 mM HEPES and 1% DMSO to achieve 1.33x10^6cells/ml. […] A read of basal fluorescence values was made (5s) prior to addition of compounds or controls (30 nl). In both ‘agonist’ and ‘antagonist mode’, the total assay volume was 6μl (1% DMSO). […] Ligand performance was categorized using an algorithm based on the activity of the entire dataset to define a ‘hit-cutoff’ parameter for both agonist-mode and antagonist-mode screening. […] Titration assays were executed using the same reagents, protocols and detection systems, done as 10-point concentration-response curves, performed in triplicate. Counter-screening was performed using untransfected HEK293 cells for comparison with results testing the same compounds effect on cells expressing Sm.TRPMPZQ, with ATP used as the positive control. For each compound, activity was plotted against compound concentration and data were fitted with a sigmoidal function.

Sm.TRPMPZQ[R1514A] = assay: Ca2+ signal in cells expressing the binding pocket mutant; assay type: cell-based, Schistosoma mansoni
Sm.TRPMPZQ [2] = target: T1, Sm.TRPMPZQ; assay: Single channel recording, inside-out patch, HEK293 stably expressing Sm.TRPMPZQ; assay type: biochemical; details: for mean slope single-channel conductance: agonist 10 μM, Ca2+-free, inside-out, mean ± SD
Protocol: For electrophysiological analysis, a HEK293 cell line stably expressing Sm.TRPMPZQ [7] was generated using the Flp-In T-REx system (K650001, Thermofisher Scientific, Carlsbad, CA). Flp-In T-REx HEK293 cells were cultured in Dulbecco’s modified Eagle’s medium supplemented with 10% fetal bovine serum, penicillin (100 units/ml), streptomycin (100 μg/ml), L-glutamine (290 μg/ml), blasticidin (10 μg/ml), and hydromycin B (100 μg/ml). HEK293 cells were plated onto glass coverslips and Sm.TRPMPZQ expression induced by addition of tetracycline (2 μg/ml) to the media 24–48 hours before recording. Prior to recording, coverslips were secured within a recording chamber of an Olympus BX51WI upright microscope. Cells were bathed in a solution containing 145 mM KCl, 10 mM HEPES, 1 mM EGTA (pH 7.2, 310–315 mOsm/kg with sucrose). The pipette solution contained 140 mM LiCl, 10 mM HEPES, 1 mM EGTA (pH 7.4, 280–285 mOsm/kg with sucrose). Patch pipettes were made of borosilicate glass (BF150-110-10, Sutter Instrument, Novato, CA) pulled on a vertical puller (Narishige, Amityville, NY, Model PC-10) with resistances 8–10 MΩ. […] Signals were filtered with an 8-pole Bessel low pass filter at 1 kHz, and sampled at 20 kHz. Open probability (Popen) was assessed in single channel search mode using Clampfit 10 software. All recordings were done at room temperature. Data represent mean±standard error for ≥3 independent experiments.

adult schistosome worms = assay: Schistosome mobility assay ex vivo; assay type: cell-based, S. mansoni
Protocol: Adult schistosomes were harvested from the mesenteric vasculature of female Swiss Webster mice previously infected (~49 days earlier) with S. mansoni cercariae (NMRI strain) by the Schistosomiasis Resource Center at the Biomedical Research Institute (BRI, Rockville, MD). Harvested schistosomes were washed in RPMI 1640 supplemented with 5% heat inactivated FBS (Gibco), HEPES (25 mM) and penicillin-streptomycin (100 units/mL). After isolation, worms were incubated overnight (37°C/5% CO2) in vented petri dishes (100x25 mm). Movement assays were performed using male and female worms in six well dishes (~5 individual worms/3ml media per well). Video recordings of worm motility (4 frames/sec) were captured using a Zeiss Discovery v20 stereomicroscope coupled to a QiCAM 12-bit cooled color CCD camera controlled by Metamorph imaging software.

schistosomes = system: schistosomes; design: method as in PMID 27128493; details: read-out: IC50 in phenotypic assays; cited from earlier work
Sm.TRPMPZQ [3] = target: T1, Sm.TRPMPZQ; details: confocal Ca2+ imaging; cited from earlier work

T1 sequence (A0A5K4F0X5 entry or part of it): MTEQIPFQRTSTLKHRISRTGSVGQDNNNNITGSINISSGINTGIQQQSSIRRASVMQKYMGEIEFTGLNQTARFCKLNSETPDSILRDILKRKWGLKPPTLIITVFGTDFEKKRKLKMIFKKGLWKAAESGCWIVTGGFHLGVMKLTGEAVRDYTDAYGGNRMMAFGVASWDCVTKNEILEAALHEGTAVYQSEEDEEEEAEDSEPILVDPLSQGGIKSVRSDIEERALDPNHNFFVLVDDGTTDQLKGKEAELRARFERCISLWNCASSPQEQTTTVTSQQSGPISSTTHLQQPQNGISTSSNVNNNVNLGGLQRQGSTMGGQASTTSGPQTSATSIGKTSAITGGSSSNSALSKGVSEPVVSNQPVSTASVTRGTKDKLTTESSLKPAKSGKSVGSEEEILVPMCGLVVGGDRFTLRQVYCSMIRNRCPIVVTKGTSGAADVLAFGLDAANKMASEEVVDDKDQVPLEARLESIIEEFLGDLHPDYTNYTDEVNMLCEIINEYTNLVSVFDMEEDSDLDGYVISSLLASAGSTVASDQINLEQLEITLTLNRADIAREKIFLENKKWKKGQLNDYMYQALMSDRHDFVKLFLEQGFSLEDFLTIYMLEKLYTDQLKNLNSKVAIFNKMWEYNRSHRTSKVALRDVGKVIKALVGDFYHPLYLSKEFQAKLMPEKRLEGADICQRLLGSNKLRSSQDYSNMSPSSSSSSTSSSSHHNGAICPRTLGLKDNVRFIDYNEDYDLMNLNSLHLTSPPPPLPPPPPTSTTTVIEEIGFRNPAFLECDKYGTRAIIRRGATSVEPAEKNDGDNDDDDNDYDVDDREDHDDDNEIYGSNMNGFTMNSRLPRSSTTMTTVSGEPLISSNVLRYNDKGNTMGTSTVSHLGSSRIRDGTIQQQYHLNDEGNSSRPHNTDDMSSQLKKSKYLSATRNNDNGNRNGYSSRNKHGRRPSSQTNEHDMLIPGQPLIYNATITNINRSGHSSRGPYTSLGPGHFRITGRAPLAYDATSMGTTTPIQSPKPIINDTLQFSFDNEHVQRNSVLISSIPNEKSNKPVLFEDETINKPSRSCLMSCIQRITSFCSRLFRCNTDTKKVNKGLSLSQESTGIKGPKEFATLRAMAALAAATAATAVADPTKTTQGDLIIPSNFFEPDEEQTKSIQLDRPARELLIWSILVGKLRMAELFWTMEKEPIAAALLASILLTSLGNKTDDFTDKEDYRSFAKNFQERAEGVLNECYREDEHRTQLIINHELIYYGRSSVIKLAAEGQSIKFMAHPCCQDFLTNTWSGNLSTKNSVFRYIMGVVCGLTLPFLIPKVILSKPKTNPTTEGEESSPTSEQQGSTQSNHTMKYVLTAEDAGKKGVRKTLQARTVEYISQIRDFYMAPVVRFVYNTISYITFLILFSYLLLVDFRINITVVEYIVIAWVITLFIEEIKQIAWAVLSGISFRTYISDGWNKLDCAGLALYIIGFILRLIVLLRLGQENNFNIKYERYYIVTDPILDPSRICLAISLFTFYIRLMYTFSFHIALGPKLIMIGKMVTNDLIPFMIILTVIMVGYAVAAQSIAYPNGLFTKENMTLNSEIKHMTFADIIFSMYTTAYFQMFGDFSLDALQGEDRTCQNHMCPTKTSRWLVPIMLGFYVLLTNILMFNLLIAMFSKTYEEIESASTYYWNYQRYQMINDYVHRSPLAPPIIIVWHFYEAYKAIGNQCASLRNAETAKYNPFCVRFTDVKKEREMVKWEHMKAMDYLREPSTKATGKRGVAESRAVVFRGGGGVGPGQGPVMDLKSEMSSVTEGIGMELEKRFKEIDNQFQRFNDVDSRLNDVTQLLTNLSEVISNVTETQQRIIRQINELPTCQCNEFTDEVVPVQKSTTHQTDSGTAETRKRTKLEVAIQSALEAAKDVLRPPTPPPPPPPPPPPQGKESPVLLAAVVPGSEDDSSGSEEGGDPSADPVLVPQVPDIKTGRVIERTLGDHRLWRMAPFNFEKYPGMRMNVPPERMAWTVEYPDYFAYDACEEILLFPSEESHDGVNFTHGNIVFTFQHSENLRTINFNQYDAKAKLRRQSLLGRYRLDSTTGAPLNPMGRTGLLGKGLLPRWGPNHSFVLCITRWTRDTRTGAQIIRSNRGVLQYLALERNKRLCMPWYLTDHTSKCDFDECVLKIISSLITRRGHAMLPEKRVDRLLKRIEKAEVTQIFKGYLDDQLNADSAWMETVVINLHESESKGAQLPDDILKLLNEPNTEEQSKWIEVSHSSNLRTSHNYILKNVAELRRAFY

Row | Compound | Emax (Sm.TRPMPZQ [1]; S2 Table, antagonist mode titration, read-out: Sm.TRPMPZQ Averaged Max % Response) [%] | EC50 (Sm.TRPMPZQ [1]; S2 Table, 10-point titration in triplicate, unit inferred, read-out: Sm.TRPMPZQ ANT Final EC50) [µM] | Sm.TRPMPZQ ANT Hill Slope (Sm.TRPMPZQ [1]; S2 Table, titration) | Ca2+ elevation at binding site mutant (Sm.TRPMPZQ[R1514A]) | mean slope single-channel conductance (Sm.TRPMPZQ [2]) [pS] | effect on adult worms ex vivo (adult schistosome worms; agonist alone) | IC50 (schistosomes) [µM] | Sm.TRPMPZQ ANT Hill Slope (Sm.TRPMPZQ [1]; S2 Table, titration, listed as SR-01000003100-3) | ΔF/F, amplitude of Ca2+ transient (Sm.TRPMPZQ [3]) | Emax (Sm.TRPMPZQ [1]; S3 Table, titration, read-out: Sm.TRPMPZQ ANT Averaged Max % Response) [%] | IC50 (Sm.TRPMPZQ [1]; read-out: IC50, block of PZQ-evoked Ca2+ signals) [µM] | effect on single channel open probability (Popen) (Sm.TRPMPZQ [2]; 50 μM, channels activated by PZQ or AG1 (10 μM)) | recovery of worms in continued presence of PZQ (adult schistosome worms; 50μM, PZQ 250 nM, 24 hours, compared to PZQ alone) | effect on worm motility (adult schistosome worms; applied alone to intact worms)
1 | COc1ccc(-c2nnc3ccc(-c4cccc(C(C)C)c4)cn23)cc1OC [AG1, 3-(3,4-Dimethoxyphenyl)-6-(3-propan-2-ylphenyl)-[1,2,4]triazolo[4,3-a]pyridine] | 109 | 0.571 | 2.322 | ablated AG1 activity | 61 ± 4 | evoked a sustained contraction | ~1.6 | – | – | – | – | – | – | –
2 | O=C(C1CCCCC1)N1CC(=O)N2CCc3ccccc3C2C1 (stereo not shown) [PZQ, praziquantel, reference compound] | – | – | – | did not elevate Ca^2+ | 76 ± 8 | – | – | 1.74 | 12.3±2.1 | – | – | – | – | –
3 | Cc1onc(-c2ccccc2)c1C(=O)N1CCN(C2c3ccccc3-c3ccccc32)CC1 [ANT1, 1-(9H-fluoren-9-yl)-4-(5-methyl-3-phenyl-1,2-oxazole-4-carbonyl)piperazine] | – | – | – | – | – | – | – | – | – | 105 | 1.3 ± 0.3 | decreased Popen | enhanced recovery | did not change worm motility

Source: PMC8565742 (PLoS Neglected Tropical Diseases, 2021)
